Data set [1] in a line: Acute toxicity in the mouse. The conditions noted are these: in vivo, po.
The test system of another data set is mice. The experiment in a line: Rotating Rod Test. The conditions noted are these: for ED50: Mus musculus, po, read-out: ED50 (dose which reduces the holding on period by 50 percent); for Rotating Rod Test activity in words: compared with chlorpromazine. The class given is in vivo, mouse. Here is the method: In the Rotating Rod Test, the ability of mice to achieve a coordinated motor performance is investigated. After peroral administration of the test substance, the mice are placed upon a horizontal slowly rotating rod and the time they remain on the rod is recorded. The ED50 is that dose which reduces the holding on period of the mice by 50 percent as compared to the holding on period prior to the administration of the test substance.

Data set [2] deals with rats. The experiment in a line: Catalepsy test (i.p., rats; number of cataleptic animals recorded every 30 minutes over 6 hours). The format is in vivo, rat. The method, then:
(§1) The following compounds were tested:
(§2) The foregoing compounds were compared to chlorpromazine, a well-known central depressant, especially well known as a neuroleptic agent.
(§3) The test animals are considered to be cataleptic when the homolateral extremities remain in the crossed position for at least 10 seconds. The number of cataleptic animals is recorded every 30 minutes over a 6-hour period. The ED50 is the dose at which 50 percent of the animals are cataleptic.

Assay in data set [3]: as above
The class given is in vivo, rat. The conditions noted are these: rat, in vivo, ip. The method, then: as §1, §2, §3

For data set [4], the system named is homovanillinic acid (turnover of dopamine in the basal ganglions). Kind of data set: Determination of Homovanillinic Acid. The format is in vivo, rat. As to conditions: rats; for Increase in HVA, percent: 2 hours before killing, untreated = 100 percent. Here is the method: Two hours prior to being killed, rats are injected with the test substance.
Thereafter, the homovanillinic acid is extracted from the supernatant portion of a homogenized mixture of the brains of the treated rats into butyl acetate and later into an aqueous solution and is oxidized with potassium ferric cyanide to a fluorescent dimer. […] The homovanillinic acid titer in untreated rats is arbitrarily set at 100 percent.

Data set [5] concerns rats. Kind of data set: "Pole Climbing" Test. The class given is in vivo, rat. As to conditions: for ED50: Rattus norvegicus, po, read-out: ED50 (blocking of the conditioned reaction); for neuroleptic action in words / quality (selectivity) of the neuroleptic action in words: compared with chlorpromazine. Here is the method: (§4) This test provides information about behavioral reactions of rats. Rats are trained to avoid, by climbing up a vertical pole in the test chamber, an electrical impulse (unconditioned impulse) released via the wire-latticed floor some seconds after an acoustic signal (conditioned impulse).
(§5) The blocking of the conditioned reaction is determined by the parameter ED50 (mg/kg p.o.); the blocking of the unconditioned reaction is determined by a parameter ED10 (mg/kg. p.o.).
(§6) The parameter ED50 (blocking of the conditioned reaction) gives a measure of the neuroleptic strength of action of the test substance. The quotient ED10 (blocking of the unconditioned reaction)/ED50 (blocking of the conditioned reaction) gives a measure of the quality of action of the test substance since, with increasing quotient, a greater selectivity of the neuroleptic action (slighter neurotoxic side-effect) is present.

Another data set can be described thus: "Pole Climbing" Test. The format is in vivo, rat. The conditions noted are these: rat, in vivo, po; rats, p.o.; higher quotient = greater selectivity of neuroleptic action; read-out: Quotient ED10 (blocking of the unconditioned reaction) / ED50 (blocking of the conditioned reaction). Here is the method:
as §4, §5, §6

Setting [6] is: rats, intraperitoneal, 6-hour period, read-out: ED50 (dose at which 50 percent of the animals are cataleptic).

“Also recorded” adds a separate entry of the source. Read-outs that look alike come from different tables or passages of the source.

Regarding `CN(C)CCCN1c2ccccc2Sc2ccc(Cl)cc21` [Chlorpromazine, reference compound], the LD50 at 24 h in data set [1] was 200 mg/kg. In addition, the ED50 with mice stood at 5 mg/kg; in the data set on rats [5] (rats, p.o.) it was 11.8 mg/kg. The “cataleptic activity in words” value in the data set with rats [2] (rat, in vivo) is given as “does demonstrate cataleptic effect”. Besides, in data set [3] (setting [6]), the TD50 at 6 h turned out to be 6 mg/kg. Besides, the “Increase in HVA, percent” value in data set [4] (20 mg/kg p.o.) worked out at 321%. In addition, the selectivity ratio in “"Pole Climbing" Test” stood at 2.5.
`Cc1ccc2c(c1)CC(N1CCN(CCN3CCCC3=O)CC1)c1cc(Cl)ccc1S2.O=C(O)/C=C\C(=O)O` (stereo not drawn) [Product A, 1-{2-[4-(8-chloro-10,11-dihydro-2-methyl-dibenzo[b,f]thiepin-10-yl)-1-piperazinyl]-ethyl}-2-pyrrolidinone maleate]: the LD50 at 24 h in data set [1] was 3750 mg/kg. In addition, the 50% effective dose (ED50) with mice (mice, peroral) came out at 7.3 mg/kg. For the same compound, in the data set on mice (mice, peroral, maleate), the “Rotating Rod Test activity in words” value is given as “strong activity; also recorded: approximates that of chlorpromazine”. Besides, the “cataleptic activity in words” value in the data set with rats [2] (as compared to chlorpromazine) is “no cataleptic effect”. For the same compound, the TD50 at 6 h in data set [3] (setting [6]) was greater than 100 mg/kg. Moreover, in data set [4], the “HVA test activity in words” value was “nearly as potent as that of chlorpromazine”. Besides, the “Increase in HVA, percent” value in data set [4] (50 mg/kg p.o.) was found to be 295%.
In data set [1], `O=C(O)/C=C\C(=O)O.O=C1OCCN1CCN1CCN(C2Cc3cc(Cl)ccc3Sc3cc(F)ccc32)CC1` (stereo not drawn) [Product B, 3-{2-[4-(2-chloro-7-fluoro-10,11-dihydrodibenzo[b,f]thiepin-10-yl)-1-piperazinyl]-ethyl}-2-oxazolidinone maleate] had an LD50 at 24 h of 900 mg/kg. In the data set with rats [2] (as compared to chlorpromazine), the “cataleptic activity in words” value is listed as “no cataleptic effect”. Further, the TD50 at 6 h in data set [3] (setting [6]) was greater than 100 mg/kg. In data set [4], the “HVA test activity in words” value was “nearly as potent as that of chlorpromazine”. Besides, the “Increase in HVA, percent” value in data set [4] (50 mg/kg p.o.) is on record as 270%.
Take `Cc1ccc2c(c1)CC(N1CCN(CCN3CCOC3=O)CC1)c1cc(F)ccc1S2` (stereo not drawn) [Product C, 3-{2-[4-(8-fluoro-10,11-dihydro-2-methyl-dibenzo[b,f]thiepin-10-yl)-1-piperazinyl]-ethyl}-2-oxazolidinone]: in data set [1], the LD50 at 24 h came out at 1880 mg/kg. Moreover, in the data set on mice (mice, peroral), the median effective dose (ED50) came out at 2.1 mg/kg and the “Rotating Rod Test activity in words” value was “strong activity; also recorded: superior to that of chlorpromazine”. The “cataleptic activity in words” value with rats [2] (as compared to chlorpromazine) is “very weak cataleptic activity”. This compound also showed a TD50 at 6 h in data set [3] of 75 mg/kg. Moreover, the “Increase in HVA, percent” value in data set [4] (50 mg/kg p.o.) came out at 235%. For the same compound, the ED50 in the data set on rats [5] (rats, p.o.) was 14 mg/kg. Further, in the data set with rats [5] (rats), the “neuroleptic action in words” value was “lies somewhat below that of chlorpromazine” and the “quality (selectivity) of the neuroleptic action in words” value (“quality (selectivity)” below) is given as “substantially exceeds that of chlorpromazine”. Also, in the data set “"Pole Climbing" Test”, the selectivity ratio is 23.
In data set [1], `O=C(O)/C=C\C(=O)O.O=C1OCCN1CCN1CCN(C2Cc3cc(Cl)ccc3Sc3ccc(F)cc32)CC1` (stereo not drawn) [Product D, 3-{2-[4-(2-chloro-8-fluoro-10,11-dihydrodibenzo[b,f]thiepin-10-yl)-1-piperazinyl]-ethyl}-2-oxazolidinone maleate] gave an LD50 at 24 h of 450 mg/kg. The ED50 with mice (mice, peroral) came to 1 mg/kg; with rats [5] it was 17 mg/kg. In addition, the “Rotating Rod Test activity in words” value in the data set with mice (mice, peroral, maleate) was “strong activity; also recorded: superior to that of chlorpromazine”. The “cataleptic activity in words” value in the data set on rats [2] (as compared to chlorpromazine) is listed as “considerably lower cataleptic activity”. In data set [3] (setting [6]), the TD50 at 6 h amounted to 45 mg/kg. Further, the “HVA test activity in words” value in data set [4] is reported as “nearly as potent as that of chlorpromazine”. Also, the “Increase in HVA, percent” value in data set [4] (45 mg/kg p.o.) worked out at 300%. The “neuroleptic action in words” value in the data set on rats [5] (rats) is recorded as “lies somewhat below that of chlorpromazine”. For the same compound, the “quality (selectivity)” value with rats [5] (rats) is given as “substantially exceeds that of chlorpromazine”. In the data set “"Pole Climbing" Test”, the selectivity ratio turned out to be 7.6.
In data set [1], `CSc1ccc2c(c1)C(N1CCN(CCN3CCOC3=O)CC1)Cc1cc(C)ccc1S2.O=C(O)/C=C\C(=O)O` (stereo not drawn) [Product E, 3-{2-[4-(10,11-dihydro-2-methyl-8-methylthiodibenzo[b,f]thiepin-10-yl)-1-piperazinyl]-ethyl}-2-oxazolidinone maleate] registered an LD50 at 24 h of 3750 mg/kg. For the same compound, the “cataleptic activity in words” value with rats [2] (as compared to chlorpromazine) is recorded as “considerably lower cataleptic activity”. Further, the TD50 at 6 h in data set [3] (setting [6]) was found to be 45 mg/kg. For the same compound, in data set [4] (50 mg/kg p.o.), the “Increase in HVA, percent” value was 255%. Besides, the ED50 in the data set on rats [5] was found to be 25 mg/kg. In the data set on rats [5] (rats), the “neuroleptic action in words” value is listed as “lies somewhat below that of chlorpromazine” and the “quality (selectivity)” value was “substantially exceeds that of chlorpromazine”. In addition, the selectivity ratio in the data set “"Pole Climbing" Test” came out at 12.

For the origin of these results see patent US3954764A, “Dibenzo [b,f]thiepins bearing piperazinyl substitution” (priority 1973, dated 1976).
